In the Kinase Knowledgebase extract (Sharma et al. 2016):
Several values for one entry are separate records, joined by “and”; a condition that tells them apart may be missing. Equal entries are not always repeated.

How the values were obtained:
CDK2 = CDK2 (UniProt P24941); assay: Enzyme Assay
EGFR [1] = target: EGFR (UniProt P00533)
EGFR [2] = target: EGFR (UniProt P00533); remark: listed apart in the source
EGFR [3] = target: EGFR (UniProt P00533); remark: listed apart in the source
EGFR (mouse) = EGFR (mouse) (UniProt P00533); conditions: nih3t3

EGFR, sequence (P00533 whole entry, looked up): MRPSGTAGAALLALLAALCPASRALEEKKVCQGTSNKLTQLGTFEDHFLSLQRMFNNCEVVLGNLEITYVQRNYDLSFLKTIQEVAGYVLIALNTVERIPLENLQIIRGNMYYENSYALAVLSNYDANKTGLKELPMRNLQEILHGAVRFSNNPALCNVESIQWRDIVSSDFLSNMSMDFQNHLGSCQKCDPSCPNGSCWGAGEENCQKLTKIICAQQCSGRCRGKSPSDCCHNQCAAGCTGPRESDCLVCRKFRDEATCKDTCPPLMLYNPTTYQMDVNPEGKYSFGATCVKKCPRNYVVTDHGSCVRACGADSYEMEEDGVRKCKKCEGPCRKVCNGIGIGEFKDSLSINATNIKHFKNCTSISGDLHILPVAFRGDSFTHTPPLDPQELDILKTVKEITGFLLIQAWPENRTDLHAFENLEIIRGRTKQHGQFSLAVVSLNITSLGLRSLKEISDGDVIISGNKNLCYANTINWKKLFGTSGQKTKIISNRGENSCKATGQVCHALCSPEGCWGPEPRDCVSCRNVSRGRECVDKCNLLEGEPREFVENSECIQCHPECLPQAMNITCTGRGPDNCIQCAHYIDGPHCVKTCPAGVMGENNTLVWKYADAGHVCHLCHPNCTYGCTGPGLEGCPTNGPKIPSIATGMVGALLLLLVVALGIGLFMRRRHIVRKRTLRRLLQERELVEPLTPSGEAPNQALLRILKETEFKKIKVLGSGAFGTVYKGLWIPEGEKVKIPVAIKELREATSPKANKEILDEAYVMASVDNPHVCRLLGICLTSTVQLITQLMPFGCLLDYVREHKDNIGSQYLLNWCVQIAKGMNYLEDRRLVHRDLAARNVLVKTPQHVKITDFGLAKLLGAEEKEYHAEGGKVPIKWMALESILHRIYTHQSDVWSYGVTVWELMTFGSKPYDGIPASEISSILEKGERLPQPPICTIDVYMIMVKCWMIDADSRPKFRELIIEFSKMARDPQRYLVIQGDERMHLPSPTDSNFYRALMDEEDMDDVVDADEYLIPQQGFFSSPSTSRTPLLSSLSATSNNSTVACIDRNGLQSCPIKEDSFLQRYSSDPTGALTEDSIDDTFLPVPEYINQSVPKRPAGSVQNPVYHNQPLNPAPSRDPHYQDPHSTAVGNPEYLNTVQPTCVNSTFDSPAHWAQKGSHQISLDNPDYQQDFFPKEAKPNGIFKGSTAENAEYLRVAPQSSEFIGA

| Compound | IC50 (CDK2) [µM] | IC50 (EGFR [1]) | IC50 (EGFR [2]) [µM] | IC50 (EGFR [3]) [µM] | IC50 (EGFR (mouse)) [µM] |
| --- | --- | --- | --- | --- | --- |
| Cc1cccc2c1/C(=C\c1c[nH]cn1)C(=O)N2 | 1.1 | – | – | – | – |
| COc1cccc(-c2ccc3c(c2)NC(=O)/C3=C\c2cc3c([nH]2)CCCC3)c1 | – | 31.8 µM and > 50 µM | > 100 | – | – |
| CC(C)(C)c1cc(C(=O)Nc2ccc(O)c(-c3cccc(-c4ccccc4)c3)c2)n(Cc2ccccc2)n1 | – | > 50 µM | – | – | – |
| CC(C)(C)c1cc(C(=O)Nc2ccc(C(F)(F)F)cc2)n(Cc2ccccc2)n1 | – | 15.6 µM | – | – | – |
| CC(C)(C)c1cc(C(=O)c2nccc3ccccc23)n(Cc2ccccc2)n1 | – | 22.5 µM | – | – | – |
| COc1ccccc1-c1ccc2c(c1)NC(=O)/C2=C\c1cc2c([nH]1)CCCC2 | – | 34.1 µM | > 100 | > 100 | – |
| CC(C)(C)c1cc(C(=O)Nc2ccc3c(c2)OCO3)n(Cc2ccccc2)n1 | – | 50.1 µM | – | – | – |
| COc1cccc(-c2ccc3c(c2)NC(=O)/C3=C\c2cc(C(C)C)c(OC)c(C(C)C)c2)c1 | – | 13.7 µM | > 100 | > 100 | – |
| O=C1Nc2ccc(F)cc2/C1=C\c1c[nH]cn1 | 7.7 | – | – | – | – |
| COc1ccccc1-c1ccc2c(c1)NC(=O)/C2=C\c1[nH]c(C)cc1C | – | – | > 100 | > 100 | – |
| CC(=O)Nc1ccc2c(c1)C(=O)c1cc(NC(=O)c3cc(C(C)(C)C)nn3Cc3ccccc3)ccc1-2 | – | 4.4 µM | – | – | – |
| CCOc1cccc(-c2ccc3c(c2)NC(=O)/C3=C\c2cc(C(C)C)c(OC)c(C(C)C)c2)c1 | – | 19.6 µM | > 100 | > 100 | – |
| O=C1Nc2cc(-c3ccccc3)ccc2/C1=C/c1cc2c([nH]1)CCCC2 | – | > 50 µM | > 100 | > 100 | – |
| O=C1Nc2cc(-c3ccccc3)ccc2/C1=C/c1cnc[nH]1 | – | > 50 µM | > 100 | > 100 | – |
| COc1cccc(-c2ccc3c(c2)NC(=O)/C3=C\c2ccc(N3CCN(C=O)CC3)cc2)c1 | – | > 50 µM | > 100 | > 100 | – |
| O=C(O)CCc1c(/C=C2\C(=O)Nc3cc(-c4ccccc4)ccc32)[nH]c2c1CCCC2 | – | – | > 100 | > 100 | – |
| CC(C)(C)c1cc(C(=O)Nc2ccccc2C(F)(F)F)n(Cc2ccccc2)n1 | – | 46.8 µM | – | – | – |
| O=C1Nc2ccccc2/C1=C\c1c[nH]cn1 | < 0.78 | – | – | – | – |
| COc1ccc(-c2ccc3c(c2)NC(=O)/C3=C\c2cnc[nH]2)cc1 | – | > 50 µM | > 100 | > 100 | – |
| CC(C)(C)c1cc(C(=O)Nc2cccnc2)n(Cc2ccccc2)n1 | – | > 100 µM | – | – | – |
| CC(C)(C)c1cc(C(=O)Nc2ccccn2)n(Cc2ccccc2)n1 | – | > 100 µM | – | – | – |
| CC(C)(C)c1cc(C(=O)Nc2cccc3c2C(=O)c2ccccc2-3)n(Cc2ccccc2)n1 | – | > 50 µM | – | – | – |
| COc1ccc(-c2ccc3c(c2)NC(=O)/C3=C\c2ccc(C)s2)cc1 | – | > 50 µM | > 100 | > 100 | – |
| COc1cccc(-c2ccc3c(c2)NC(=O)/C3=C\c2[nH]c(C)cc2C)c1 | – | > 50 µM and 27.3 µM | > 100 | > 100 | – |

| Compound | IC50 (CDK2) [µM] | IC50 (EGFR [1]) | IC50 (EGFR [2]) [µM] | IC50 (EGFR [3]) [µM] | IC50 (EGFR (mouse)) [µM] |
| --- | --- | --- | --- | --- | --- |
| Cc1cccnc1NC(=O)c1cc(C(C)(C)C)nn1Cc1ccccc1 | – | 53.4 µM | – | – | – |
| CCOc1cccc(-c2ccc3c(c2)NC(=O)/C3=C\c2[nH]c(CC)cc2CC)c1 | – | > 50 µM | > 100 | > 100 | – |
| COc1cccc(-c2ccc3c(c2)NC(=O)/C3=C\c2[nH]c3c(c2C)CCCC3)c1 | – | > 50 µM | > 100 | > 100 | – |
| Cc1ccnc(NC(=O)c2cc(C(C)(C)C)nn2Cc2ccccc2)c1 | – | 50.1 µM | – | – | – |
| Cc1ccc(Cn2nc(C)cc2C(=O)Nc2ccc(C(F)(F)F)cc2)cc1 | – | 7.1 µM and 9.8 µM | – | – | – |
| COc1ccc(-c2ccc3c(c2)NC(=O)/C3=C\c2[nH]c3c(c2CCC(=O)O)CCCC3)cc1 | – | – | > 100 | > 100 | – |
| O=C1Nc2ccc(Cl)cc2/C1=C\c1c[nH]cn1 | < 0.78 | – | – | – | – |
| COc1cc2c(cc1OC)/C(=C\c1c[nH]cn1)C(=O)N2 | 2.4 | – | – | – | – |
| CCn1c2ccccc2c2cc(NC(=O)c3cc(C(C)(C)C)nn3Cc3ccccc3)ccc21 | – | > 50 µM | – | – | – |
| Cc1cnc2ccccc2c1NC(=O)c1cc(C(C)(C)C)nn1Cc1ccccc1 | – | 21.2 µM | – | – | – |
| COc1ccc(-c2ccccc2)cc1NC(=O)c1cc(C(C)(C)C)nn1Cc1ccccc1 | – | > 50 µM | – | – | – |
| CC(C)(C)c1cc(C(=O)Nc2c(F)c(F)nc(F)c2F)n(Cc2ccccc2)n1 | – | 26 µM | – | – | – |
| CC(C)(C)c1cc(C(=O)Nc2cccc(C(F)(F)F)c2)n(Cc2ccccc2)n1 | – | 53.4 µM | – | – | – |
| COc1ccc(-c2ccc3c(c2)NC(=O)/C3=C\c2[nH]c(C)cc2C)cc1 | – | > 50 µM | > 100 | > 100 | – |
| COc1ccccc1-c1ccc2c(c1)NC(=O)/C2=C\c1[nH]c2c(c1C)CCCC2 | – | > 50 µM | > 100 | > 100 | – |
| COc1ccc(NC(=O)c2cc(C(C)(C)C)nn2Cc2ccccc2)c(OC)n1 | – | > 100 µM | – | – | – |
| O=C1Nc2ccc([N+](=O)[O-])cc2/C1=C\c1c[nH]cn1 | < 0.78 | – | – | – | – |
| CC(C)(C)c1cc(C(=O)Nc2cc3ccccc3cn2)n(Cc2ccccc2)n1 | – | > 100 µM | – | – | – |
| Cc1cc(C)c(NC(=O)c2cc(C(C)(C)C)nn2Cc2ccccc2)cn1 | – | 69.6 µM | – | – | – |
| CCOc1cccc(-c2ccc3c(c2)NC(=O)/C3=C\c2cnc[nH]2)c1 | – | > 50 µM | > 100 | > 100 | – |
| Cc1ccc(Cn2nc(C)cc2C(=O)Nc2cccc(C(F)(F)F)c2)cc1 | – | 6.3 µM and 9.8 µM | – | – | – |
| Nc1ccc2c(c1)/C(=C\c1c[nH]cn1)C(=O)N2 | < 0.78 | – | – | – | – |
| COc1c(C(C)C)cc(/C=C2\C(=O)Nc3cc(-c4ccccc4)ccc32)cc1C(C)C | – | – | > 100 | > 100 | – |
| COc1cccc(-c2ccc3c(c2)NC(=O)/C3=C\c2[nH]c3c(c2CCC(=O)O)CCCC3)c1 | – | 37.1 µM | > 100 | 11.4 | – |

| Compound | IC50 (CDK2) [µM] | IC50 (EGFR [1]) | IC50 (EGFR [2]) [µM] | IC50 (EGFR [3]) [µM] | IC50 (EGFR (mouse)) [µM] |
| --- | --- | --- | --- | --- | --- |
| CC(C)(C)c1cc(C(=O)Nc2ccc3oc(=O)c4ccccc4c3c2)n(Cc2ccccc2)n1 | – | 43 µM | – | – | – |
| COc1ccc(-c2ccc3c(c2)NC(=O)/C3=C\c2cc3c([nH]2)CCCC3)cc1 | – | > 50 µM | > 100 | > 100 | – |
| Cc1cc(C)c2c(c1)NC(=O)/C2=C/c1c[nH]cn1 | < 0.78 | – | – | – | – |
| CCc1cc(CC)c(/C=C2\C(=O)Nc3cc(-c4ccccc4OC)ccc32)[nH]1 | – | – | > 100 | > 100 | – |
| CC(C)(C)c1cc(C(=O)Nc2cccc(-c3ccccc3)c2)n(Cc2ccccc2)n1 | – | > 50 µM | – | – | – |
| CC(C)(C)c1cc(C(=O)Nc2ccc(C(F)(F)F)cn2)n(Cc2ccccc2)n1 | – | 46.8 µM | – | – | – |
| CC(C)(C)c1cc(C(=O)Nc2cnc3ccccc3c2)n(Cc2ccccc2)n1 | – | 10.2 µM | – | – | – |
| COc1ccccc1-c1ccc2c(c1)NC(=O)/C2=C\c1[nH]c2c(c1CCC(=O)O)CCCC2 | – | – | > 100 | > 100 | – |
| CCc1cc(CC)c(/C=C2\C(=O)Nc3cc(-c4ccc(OC)cc4)ccc32)[nH]1 | – | > 50 µM | > 100 | > 100 | – |
| COc1ccc(-c2ccc3c(c2)NC(=O)/C3=C\c2[nH]c3c(c2C)CCCC3)cc1 | – | > 50 µM | > 100 | > 100 | – |
| COc1cccc(-c2cc(NC(=O)c3cc(C(C)(C)C)nn3Cc3ccccc3)ccc2OC)c1 | – | > 50 µM | – | – | – |
| COc1ccccc1-c1ccc2c(c1)NC(=O)/C2=C\c1cnc[nH]1 | – | – | > 100 | > 100 | – |
| CCOc1cccc(-c2ccc3c(c2)NC(=O)/C3=C\c2ccc(C)s2)c1 | – | > 50 µM | > 100 | > 100 | – |
| Cc1cc(C)c(/C=C2\C(=O)Nc3cc(-c4ccccc4)ccc32)[nH]1 | – | > 50 µM | > 100 | > 100 | – |
| CCOc1cccc(-c2ccc3c(c2)NC(=O)/C3=C\c2cc3c([nH]2)CCCC3)c1 | – | > 50 µM | > 100 | > 100 | – |
| O=C1Nc2c(Br)cc(Cl)cc2/C1=C\c1c[nH]cn1 | 9.3 | – | – | – | – |
| Cc1cc(/C=C2/C(=O)Nc3ccccc32)c(C)c2c1[nH]c1ccccc12 | – | 7.03 µM | – | – | > 100 |
| CCc1cc(CC)c(/C=C2\C(=O)Nc3cc(-c4cccc(OC)c4)ccc32)[nH]1 | – | > 50 µM and 30.9 µM | > 100 | > 100 | – |
| Cc1ccc(/C=C2\C(=O)Nc3cc(-c4ccccc4)ccc32)s1 | – | > 50 µM | > 100 | > 100 | – |
| COc1ccc(NC(=O)c2cc(C(C)(C)C)nn2Cc2ccccc2)cc1-c1ccccc1 | – | > 50 µM | – | – | – |
| COc1cccc(-c2ccc3c(c2)NC(=O)/C3=C\c2cnc[nH]2)c1 | – | > 50 µM and 27.4 µM | > 100 | > 100 | – |
| CCc1cc(CC)c(/C=C2\C(=O)Nc3cc(-c4ccccc4)ccc32)[nH]1 | – | > 50 µM | > 100 | > 100 | – |
| CCOc1cccc(-c2ccc3c(c2)NC(=O)/C3=C\c2[nH]c(C)cc2C)c1 | – | > 50 µM | > 100 | > 100 | – |
| CC(C)(C)c1cc(C(=O)Nc2ccncc2)n(Cc2ccccc2)n1 | – | 28.2 µM | – | – | – |
